# Assay results from ChEMBL document CHEMBL3885881, “DrugMatrix”.
# Species: Rattus norvegicus
# Test: DrugMatrix - Regimen: Daily Repeat
# Format: toxicity, organism-based, Sprague-Dawley
# Parameters: regimen Daily Repeat, gender Male, age 6-8 weeks
# Conditions: in vivo, po, route oral GAVAGE, vehicle 100 % WATER; for ABSOLUTE BASOPHIL / ABSOLUTE EOSINOPHIL / ABSOLUTE LYMPHOCYTE / ABSOLUTE MONOCYTE / ABSOLUTE SEGMENTED NEUTROPHIL / BASOPHIL / EOSINOPHIL / ERYTHROCYTE COUNT / HEMATOCRIT / HEMOGLOBIN / LEUKOCYTE COUNT / LYMPHOCYTE / MEAN CORPUSCULAR HEMOGLOBIN / MEAN CORPUSCULAR HEMOGLOBIN CONCENTRATION / MEAN CORPUSCULAR VOLUME / MONOCYTE / NEUTROPHIL / NUCLEATED RED BLOOD CELLS / PLATELET COUNT: tissue Blood; for ALANINE AMINOTRANSFERASE / ALBUMIN / ALKALINE PHOSPHATASE / ASPARTATE AMINOTRANSFERASE / BLOOD UREA NITROGEN / CARBON DIOXIDE / CHLORIDE / CHOLESTEROL / CREATINE PHOSPHOKINASE / CREATININE / GLUCOSE / LACTATE DEHYDROGENASE / LIPASE / PHOSPHORUS / POTASSIUM / SODIUM / TOTAL BILIRUBIN / TOTAL PROTEIN / URIC ACID: tissue Plasma
# [1] = 0 mg/kg, 72 h, dose level Control, time 3 day
# [2] = 0 mg/kg, 120 h, dose level Control, time 5 day
# [3] = 11 mg/kg, 72 h, dose level Low, time 3 day
compound,measurement,setting,value
CN(C)C(=O)Oc1cccc([N+](C)(C)C)c1.[Br-] [NEOSTIGMINE BROMIDE],ABSOLUTE BASOPHIL,[1],0 CELLS/uL
same,ABSOLUTE EOSINOPHIL,[1],32.5 CELLS/uL
same,ABSOLUTE LYMPHOCYTE,[1],9305.83 CELLS/uL
same,ABSOLUTE MONOCYTE,[1],43.83 CELLS/uL
same,ABSOLUTE SEGMENTED NEUTROPHIL,[1],817.83 CELLS/uL
same,BASOPHIL,[1],0%
same,EOSINOPHIL,[1],0.33%
same,ERYTHROCYTE COUNT,[1],5.38 x10E6/uL
same,HEMATOCRIT,[1],33.63%
same,HEMOGLOBIN,[1],13.17 G/DL
same,LEUKOCYTE COUNT,[1],10.2 x10E3/uL
same,LYMPHOCYTE,[1],91.17%
same,MEAN CORPUSCULAR HEMOGLOBIN,[1],24.5 pg
same,MEAN CORPUSCULAR HEMOGLOBIN CONCENTRATION,[1],39.13 G/DL
same,MEAN CORPUSCULAR VOLUME,[1],62.53 fL
same,MONOCYTE,[1],0.5%
same,NEUTROPHIL,[1],8%
same,NUCLEATED RED BLOOD CELLS,[1],0.17 /100WBC
same,PLATELET COUNT,[1],858 x10E3/uL
same,ALANINE AMINOTRANSFERASE,[1],55.67 u/L
same,ALBUMIN,[1],4.07 G/DL
same,ALKALINE PHOSPHATASE,[1],337 u/L
same,ASPARTATE AMINOTRANSFERASE,[1],84 u/L
same,BLOOD UREA NITROGEN,[1],13.17 mg/dL
same,CARBON DIOXIDE,[1],34.17 mmol/L
same,CHLORIDE,[1],99.33 MEQ/L
same,CHOLESTEROL,[1],78.83 mg/dL
same,CREATINE PHOSPHOKINASE,[1],576.83 u/L
same,CREATININE,[1],0.17 mg/dL
same,GLUCOSE,[1],152.67 mg/dL
same,LACTATE DEHYDROGENASE,[1],147.83 u/L
same,LIPASE,[1],9.5 u/L
same,PHOSPHORUS,[1],10.78 mg/dL
same,POTASSIUM,[1],6.34 MEQ/L
same,SODIUM,[1],144.12 MEQ/L
same,TOTAL BILIRUBIN,[1],0.18 mg/dL
same,TOTAL PROTEIN,[1],6.08 G/DL
same,URIC ACID,[1],0.65 mg/dL
same,ABSOLUTE BASOPHIL,[2],0 CELLS/uL
same,ABSOLUTE EOSINOPHIL,[2],31.17 CELLS/uL
same,ABSOLUTE LYMPHOCYTE,[2],7918.33 CELLS/uL
same,ABSOLUTE MONOCYTE,[2],58.33 CELLS/uL
same,ABSOLUTE SEGMENTED NEUTROPHIL,[2],725.5 CELLS/uL
same,BASOPHIL,[2],0%
same,EOSINOPHIL,[2],0.33%
same,ERYTHROCYTE COUNT,[2],5.32 x10E6/uL
same,HEMATOCRIT,[2],33.53%
same,HEMOGLOBIN,[2],13.17 G/DL
same,LEUKOCYTE COUNT,[2],8.73 x10E3/uL
same,LYMPHOCYTE,[2],90.33%
same,MEAN CORPUSCULAR HEMOGLOBIN,[2],24.82 pg
same,MEAN CORPUSCULAR HEMOGLOBIN CONCENTRATION,[2],39.33 G/DL
same,MEAN CORPUSCULAR VOLUME,[2],63.12 fL
same,MONOCYTE,[2],0.67%
same,NEUTROPHIL,[2],8.67%
same,NUCLEATED RED BLOOD CELLS,[2],0 /100WBC
same,PLATELET COUNT,[2],1144.83 x10E3/uL
same,ALANINE AMINOTRANSFERASE,[2],60.5 u/L
same,ALBUMIN,[2],3.97 G/DL
same,ALKALINE PHOSPHATASE,[2],343.17 u/L
same,ASPARTATE AMINOTRANSFERASE,[2],80.83 u/L
same,BLOOD UREA NITROGEN,[2],15 mg/dL
same,CARBON DIOXIDE,[2],31 mmol/L
same,CHLORIDE,[2],99.75 MEQ/L
same,CHOLESTEROL,[2],71.5 mg/dL
same,CREATINE PHOSPHOKINASE,[2],237.17 u/L
same,CREATININE,[2],0.17 mg/dL
same,GLUCOSE,[2],137 mg/dL
same,LACTATE DEHYDROGENASE,[2],146.17 u/L
same,LIPASE,[2],11.5 u/L
same,PHOSPHORUS,[2],10.13 mg/dL
same,POTASSIUM,[2],6 MEQ/L
same,SODIUM,[2],145 MEQ/L
same,TOTAL BILIRUBIN,[2],0.13 mg/dL
same,TOTAL PROTEIN,[2],5.82 G/DL
same,URIC ACID,[2],0.62 mg/dL
same,ABSOLUTE BASOPHIL,[3],0 CELLS/uL
same,ABSOLUTE EOSINOPHIL,[3],0 CELLS/uL
same,ABSOLUTE LYMPHOCYTE,[3],8155 CELLS/uL
same,ABSOLUTE MONOCYTE,[3],60.33 CELLS/uL
same,ABSOLUTE SEGMENTED NEUTROPHIL,[3],851.33 CELLS/uL
same,BASOPHIL,[3],0%
same,EOSINOPHIL,[3],0%
same,ERYTHROCYTE COUNT,[3],5.22 x10E6/uL
same,HEMATOCRIT,[3],32.5%
same,HEMOGLOBIN,[3],12.8 G/DL
same,LEUKOCYTE COUNT,[3],9.07 x10E3/uL
same,LYMPHOCYTE,[3],90%
same,MEAN CORPUSCULAR HEMOGLOBIN,[3],24.53 pg
same,MEAN CORPUSCULAR HEMOGLOBIN CONCENTRATION,[3],39.4 G/DL
same,MEAN CORPUSCULAR VOLUME,[3],62.3 fL
same,MONOCYTE,[3],0.67%
same,NEUTROPHIL,[3],9.33%
same,NUCLEATED RED BLOOD CELLS,[3],0 /100WBC
same,PLATELET COUNT,[3],925.67 x10E3/uL
same,ALANINE AMINOTRANSFERASE,[3],55.67 u/L
same,ALBUMIN,[3],3.93 G/DL
same,ALKALINE PHOSPHATASE,[3],332.67 u/L
same,ASPARTATE AMINOTRANSFERASE,[3],81.67 u/L
same,BLOOD UREA NITROGEN,[3],13.67 mg/dL
same,CARBON DIOXIDE,[3],34.33 mmol/L
same,CHLORIDE,[3],98.67 MEQ/L
same,CHOLESTEROL,[3],82.67 mg/dL
same,CREATINE PHOSPHOKINASE,[3],214.67 u/L
same,CREATININE,[3],0.14 mg/dL
same,GLUCOSE,[3],150.67 mg/dL
same,LACTATE DEHYDROGENASE,[3],142.33 u/L
same,LIPASE,[3],9.33 u/L
same,PHOSPHORUS,[3],10.87 mg/dL
same,POTASSIUM,[3],5.64 MEQ/L
same,SODIUM,[3],144.73 MEQ/L
same,TOTAL BILIRUBIN,[3],0.17 mg/dL
same,TOTAL PROTEIN,[3],5.97 G/DL
same,URIC ACID,[3],0.47 mg/dL
